In PMC3745465 (PLoS ONE, 2013):
Where two headings read alike, the source gives them in different places.

How the values were obtained:
[1] = test system: apical uptake transporter (AT); details: MDCK-MDR1-NKI; fitted
[2] = test system: basolateral digoxin uptake transporter; details: Caco-2; 10 µM digoxin B>A, 1 hr; Trel = 0.2
[3] = test system: basolateral digoxin uptake transporter; details: MDCK-MDR1-NIH; 10 µM digoxin B>A, 1 hr; Trel = 0.6; listed as KCZ
[4] = parameters: method as in earlier work; details: ref 18 19 20, cited from earlier work
[5] = test system: basolateral digoxin uptake transporter; details: CPT-B2; 10 µM digoxin B>A, 1 hr; Trel = 0.3
P-gp [6] = biological target: T1, P-gp (Homo sapiens, UniProt P08183); details: MDCK-MDR1-NKI; fitted consensus value
in vitro = details: dog
P-gp [7] = biological target: T1, P-gp; assay: cell-based
[8] = mol drug per L lipid / mol drug per L aqueous buffer; 10 µM drug; 37°C
[9] = test system: MDCK-MDR1-NKI confluent cell monolayers; details: nicardipine up to 100 µM; data not shown
[10] = MDCK-MDR1, with GF120918 2 µM, both chambers, Passive Permeability Coefficient at steady-state PAB, A>B, +GF120918
[11] = MDCK-MDR1, with GF120918 2 µM, both chambers, Passive Permeability Coefficient at steady-state PBA, B>A, +GF120918
[12] = MDCK-MDR1, with GF120918 2 µM, both chambers, passive permeability, direction not given

T1 sequence (P08183 whole entry): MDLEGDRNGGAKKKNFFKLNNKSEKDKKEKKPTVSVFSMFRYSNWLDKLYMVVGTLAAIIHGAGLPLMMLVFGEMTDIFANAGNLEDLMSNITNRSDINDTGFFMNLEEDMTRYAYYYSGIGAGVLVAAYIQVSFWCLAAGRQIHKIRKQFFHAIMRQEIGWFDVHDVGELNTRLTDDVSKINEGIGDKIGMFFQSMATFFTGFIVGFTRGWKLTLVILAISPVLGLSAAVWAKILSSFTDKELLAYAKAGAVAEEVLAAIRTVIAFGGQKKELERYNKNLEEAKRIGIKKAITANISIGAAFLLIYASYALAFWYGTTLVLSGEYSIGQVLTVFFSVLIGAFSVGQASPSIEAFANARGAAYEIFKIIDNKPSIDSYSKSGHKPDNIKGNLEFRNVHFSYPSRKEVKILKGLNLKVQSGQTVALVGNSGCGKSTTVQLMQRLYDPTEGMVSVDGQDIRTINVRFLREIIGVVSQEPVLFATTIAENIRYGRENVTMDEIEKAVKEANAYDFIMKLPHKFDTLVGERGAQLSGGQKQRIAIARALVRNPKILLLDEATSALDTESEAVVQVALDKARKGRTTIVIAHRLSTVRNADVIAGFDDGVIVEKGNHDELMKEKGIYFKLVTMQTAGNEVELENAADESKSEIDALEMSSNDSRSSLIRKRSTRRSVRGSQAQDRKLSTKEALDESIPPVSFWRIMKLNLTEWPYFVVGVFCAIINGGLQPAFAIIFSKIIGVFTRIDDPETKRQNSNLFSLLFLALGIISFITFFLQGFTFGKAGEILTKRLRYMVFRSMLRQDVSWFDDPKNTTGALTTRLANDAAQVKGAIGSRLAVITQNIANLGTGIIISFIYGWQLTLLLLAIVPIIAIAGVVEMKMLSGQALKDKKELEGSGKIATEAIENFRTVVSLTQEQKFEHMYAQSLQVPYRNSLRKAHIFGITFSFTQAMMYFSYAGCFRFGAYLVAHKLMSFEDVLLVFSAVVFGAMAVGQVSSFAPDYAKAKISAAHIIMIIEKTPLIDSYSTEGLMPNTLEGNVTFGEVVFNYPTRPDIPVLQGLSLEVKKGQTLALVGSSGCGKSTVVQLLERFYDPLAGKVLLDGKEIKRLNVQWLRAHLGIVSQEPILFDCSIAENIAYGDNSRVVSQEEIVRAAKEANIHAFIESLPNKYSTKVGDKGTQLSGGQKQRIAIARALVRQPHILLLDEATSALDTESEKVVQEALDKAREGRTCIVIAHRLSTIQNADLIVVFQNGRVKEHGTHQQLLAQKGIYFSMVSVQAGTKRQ

For `CC(=O)N1CCN(c2ccc(OCC3COC(Cn4ccnc4)(c4ccc(Cl)cc4Cl)O3)cc2)CC1` (stereo not drawn) [Ketoconazole], the “Other Transporters kA, 1st order clearance through apical uptake transporter” value (“Other Transporters kA” for short) [1] was 730±70 0 s^−1, the “KQB, effective association constant of inhibitor to basolateral digoxin uptake transporter” value [2] was “(2±1)×10^6 M^−1” and the “KQB, effective association constant of inhibitor to basolateral digoxin uptake transporter” value [3] was “(4±2)×10^5 M^−1”. For the same compound, the “aggregating compound or not” value ([4]; enzyme inhibition studies) was “not to be aggregating compounds” and the “KQB, effective association constant of inhibitor to basolateral digoxin uptake transporter” value [5] was “(4±2)×10^6 M^−1”.
With `C=C[C@H]1C[N@@]2CC[C@H]1C[C@@H]2[C@@H](O)c1ccnc2ccc(OC)cc12` [Quinidine] the “Dissociation from P-gp into Apical Bilayer kr” value (P-gp [6]) was “(4±2)×10^+3 s^−1”, the “Efflux from P-gp into Apical Chamber k2” value (P-gp [6]) was 3 ± 0.4 s⁻¹ and the Papp (in vitro; [10]) was 67 ± 5 ×10⁻⁶ cm/s. For the same compound, the Papp (in vitro; [11]) was 67 ± 5 ×10⁻⁶ cm/s.
With `CN(C)C(=O)C(CCN1CCC(O)(c2ccc(Cl)cc2)CC1)(c1ccccc1)c1ccccc1` [Loperamide] the “Dissociation from P-gp into Apical Bilayer kr” value (P-gp [6]) was “(2±1)×10^+4 s^−1”, the “Efflux from P-gp into Apical Chamber k2” value (P-gp [6]) was 0.4 ± 0.08 s⁻¹ and the Papp (in vitro; MDCK-MDR1, Passive Permeability Coefficient at steady-state PAB, A>B, +GF120918) was 32 ± 7 ×10⁻⁶ cm/s. The Papp (in vitro; MDCK-MDR1, Passive Permeability Coefficient at steady-state PBA, B>A, +GF120918) was 32 ± 9 ×10⁻⁶ cm/s, the Papp (in vitro; MDCK-MDR1, passive permeability, direction not given) was ~32 ×10⁻⁶ cm/s and the Kd (P-gp [7]) was 200 µM. The “Molar partition coefficient, Apical Outer Leaflet PC/SM/Chol (1∶1∶1) (mols), KAO” value [8] was 300±50, the “Molar partition coefficient, Basolateral Outer Leaflet PC/Chol (2∶1) (mols), KBO” value [8] was 450±50 and the “Molar partition coefficient, Plasma Cytosolic Leaflet PE/PS/Chol (1∶1∶1) (mols), KPC” value [8] was 1500±250.
For `CC(C)CN(C[C@@H](O)[C@H](Cc1ccccc1)NC(=O)O[C@H]1CCOC1)S(=O)(=O)c1ccc(N)cc1` [Amprenavir], the “Other Transporters kA” value [1] was 350±30 0 s^−1.
For `COC(=O)C1=C(C)NC(C)=C(C(=O)OCCN(C)Cc2ccccc2)C1c1cccc([N+](=O)[O-])c1` (stereo not drawn) [nicardipine], the “PC plateau (large inhibitor concentration plateau) of digoxin transport inhibition” value [9] is listed as “significantly above zero”, the “shape of inhibition curve of digoxin transport” value [9] is listed as “sigmoidal” and the “concentration above which large aggregates are made” value ([4]; enzyme inhibition studies) is listed as 30–40 µm. The “concentration at which colloidal aggregates form” value [4] was “about 30 µM”.
In the case of `C[C@H]1O[C@@H](O[C@H]2[C@@H](O)C[C@H](O[C@H]3[C@@H](O)C[C@H](O[C@H]4CC[C@@]5(C)[C@H](CC[C@@H]6[C@@H]5C[C@@H](O)[C@]5(C)[C@@H](C7=CC(=O)OC7)CC[C@]65O)C4)O[C@@H]3C)O[C@@H]2C)C[C@H](O)[C@@H]1O` [Digoxin], the “Other Transporters kA” value [1] is reported as 40 ± 20 s⁻¹, the “Dissociation from P-gp into Apical Bilayer kr” value (P-gp [6]) is reported as “(3±1)×10^+4 s^−1” and the “Efflux from P-gp into Apical Chamber k2” value (P-gp [6]) is reported as 3 ± 1 s⁻¹. The Papp (in vitro; [10]) was 4 ± 1 ×10⁻⁶ cm/s, the Papp (in vitro; [11]) was 5 ± 1 ×10⁻⁶ cm/s and the Papp (in vitro; [12]) was < 10 ×10⁻⁶ cm/s. For the same compound, the “aggregating compound or not” value ([4]; enzyme inhibition studies) was “not to be aggregating compounds”.
In the case of `CC[C@]1(O)C[C@@H]2CN(CCc3c([nH]c4ccccc34)[C@@](C(=O)OC)(c3cc4c(cc3OC)N(C)[C@H]3[C@@](O)(C(=O)OC)[C@H](OC(C)=O)[C@]5(CC)C=CCN6CC[C@]43[C@@H]65)C2)C1` [Vinblastine], the “Other Transporters kA” value [1] is reported as 0 s⁻¹, the “Dissociation from P-gp into Apical Bilayer kr” value (P-gp [6]) is reported as “(5±2.5)×10^+4 s^−1” and the “Efflux from P-gp into Apical Chamber k2” value (P-gp [6]) is reported as 3 ± 0.5 s⁻¹. The Papp (in vitro; [10]) was 5.5 ± 2 ×10⁻⁶ cm/s, the Papp (in vitro; [11]) was 9 ± 1 ×10⁻⁶ cm/s and the Papp (in vitro; [12]) was < 10 ×10⁻⁶ cm/s. The “Molar partition coefficient, Apical Outer Leaflet PC/SM/Chol (1∶1∶1) (mols), KAO” value [8] was 200±3, the “Molar partition coefficient, Basolateral Outer Leaflet PC/Chol (2∶1) (mols), KBO” value [8] was 200±20 and the “Molar partition coefficient, Plasma Cytosolic Leaflet PE/PS/Chol (1∶1∶1) (mols), KPC” value [8] was 200±50.
